Results as given in PubChem BioAssay (NCI).
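Where inhibition never reached the appropriate level, the endpoint shown equals the highest concentration tested. Otherwise, values were interpolated linearly from a five-concentration, 48-hour dose response in 96-well plates. TGI: total growth inhibition.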

Experiments:
Assay in all cases: inhibition of tumour cell growth, NCI panel, 48 h
SK-MEL-28 melanoma = tested on: SK-MEL-28 melanoma
HCT-15 colon = tested on: HCT-15 colon
NCI-H522 lung = tested on: NCI-H522 lung
A549 NSCLC = tested on: A549 NSCLC
ACHN renal = tested on: ACHN renal
SK-OV-3 ovarian = tested on: SK-OV-3 ovarian
HOP-92 NSCLC = tested on: HOP-92 NSCLC
MALME-3M melanoma = tested on: MALME-3M melanoma
CAKI-1 renal = tested on: CAKI-1 renal
SNB-75 CNS = tested on: SNB-75 CNS
SN12C renal = tested on: SN12C renal
EKVX NSCLC = tested on: EKVX NSCLC
LOX IMVI melanoma = tested on: LOX IMVI melanoma
HT29 colon = tested on: HT29 colon
SF-268 CNS = tested on: SF-268 CNS
HCC-2998 colon = tested on: HCC-2998 colon
TK-10 renal = tested on: TK-10 renal
KM12 colon = tested on: KM12 colon
OVCAR-3 ovarian = tested on: OVCAR-3 ovarian
OVCAR-5 ovarian = tested on: OVCAR-5 ovarian
UACC-257 melanoma = tested on: UACC-257 melanoma
UO-31 renal = tested on: UO-31 renal
MDA-N = tested on: MDA-N
T-47D breast = tested on: T-47D breast
SNB-19 CNS = tested on: SNB-19 CNS
OVCAR-4 ovarian = tested on: OVCAR-4 ovarian
HS 578T breast = tested on: HS 578T breast
MDA-MB-231 breast = tested on: MDA-MB-231 breast
HL-60(TB) leukemia = tested on: HL-60(TB) leukemia
SK-MEL-5 melanoma = tested on: SK-MEL-5 melanoma
786-0 renal = tested on: 786-0 renal
RPMI-8226 leukemia = tested on: RPMI-8226 leukemia
SF-539 CNS = tested on: SF-539 CNS
SR leukemia = tested on: SR leukemia
MCF7 breast = tested on: MCF7 breast
COLO 205 colon = tested on: COLO 205 colon
RXF 393 renal = tested on: RXF 393 renal
SW-620 colon = tested on: SW-620 colon
SF-295 CNS = tested on: SF-295 CNS
A498 renal = tested on: A498 renal
U251 CNS = tested on: U251 CNS
IGROV1 ovarian = tested on: IGROV1 ovarian
K-562 leukemia = tested on: K-562 leukemia
NCI-H460 lung = tested on: NCI-H460 lung
MOLT-4 leukemia = tested on: MOLT-4 leukemia
MDA-MB-435 = tested on: MDA-MB-435
NCI/ADR-RES ovarian = tested on: NCI/ADR-RES ovarian
SK-MEL-2 melanoma = tested on: SK-MEL-2 melanoma
UACC-62 melanoma = tested on: UACC-62 melanoma
OVCAR-8 ovarian = tested on: OVCAR-8 ovarian
CCRF-CEM leukemia = tested on: CCRF-CEM leukemia
HOP-62 NSCLC = tested on: HOP-62 NSCLC
NCI-H23 lung = tested on: NCI-H23 lung
PC-3 prostate = tested on: PC-3 prostate
HCT-116 colon = tested on: HCT-116 colon

## CCOC(=O)/C1=C(\C)N(Cc2ccccc2)C(=O)c2ccccc2C(=O)c2c(OC(C)=O)ccc(OC(C)=O)c21
SK-MEL-28 melanoma
  TGI: > 100 µM
HCT-15 colon
  TGI: > 100 µM
NCI-H522 lung
  TGI: > 100 µM
A549 NSCLC
  TGI: > 100 µM
ACHN renal
  TGI: > 100 µM
SK-OV-3 ovarian
  TGI: > 100 µM
HOP-92 NSCLC
  TGI: 43.9 µM
MALME-3M melanoma
  TGI: > 100 µM
CAKI-1 renal
  TGI: > 100 µM
SNB-75 CNS
  TGI: > 100 µM
SN12C renal
  TGI: > 100 µM
EKVX NSCLC
  TGI: 90.9 µM
LOX IMVI melanoma
  TGI: > 100 µM
HT29 colon
  TGI: > 100 µM
SF-268 CNS
  TGI: > 100 µM
HCC-2998 colon
  TGI: 37.4 µM
TK-10 renal
  TGI: > 100 µM
KM12 colon
  TGI: > 100 µM
OVCAR-3 ovarian
  TGI: 80.9 µM
OVCAR-5 ovarian
  TGI: > 100 µM
UACC-257 melanoma
  TGI: > 100 µM
UO-31 renal
  TGI: > 100 µM
MDA-N
  TGI: > 100 µM
T-47D breast
  TGI: > 100 µM
SNB-19 CNS
  TGI: > 100 µM
OVCAR-4 ovarian
  TGI: > 100 µM
HS 578T breast
  TGI: > 100 µM
MDA-MB-231 breast
  TGI: > 100 µM
HL-60(TB) leukemia
  TGI: 79.1 µM
SK-MEL-5 melanoma
  TGI: > 100 µM
786-0 renal
  TGI: > 100 µM
RPMI-8226 leukemia
  TGI: 45.1 µM
SF-539 CNS
  TGI: > 100 µM
SR leukemia
  TGI: > 100 µM
MCF7 breast
  TGI: 58.6 µM
COLO 205 colon
  TGI: > 100 µM
RXF 393 renal
  TGI: 93 µM
SW-620 colon
  TGI: > 100 µM
SF-295 CNS
  TGI: > 100 µM
A498 renal
  TGI: > 100 µM
U251 CNS
  TGI: > 100 µM
IGROV1 ovarian
  TGI: > 100 µM
K-562 leukemia
  TGI: > 100 µM
NCI-H460 lung
  TGI: > 100 µM
MOLT-4 leukemia
  TGI: > 100 µM
MDA-MB-435
  TGI: > 100 µM
NCI/ADR-RES ovarian
  TGI: > 100 µM
SK-MEL-2 melanoma
  TGI: > 100 µM
UACC-62 melanoma
  TGI: > 100 µM
OVCAR-8 ovarian
  TGI: > 100 µM
CCRF-CEM leukemia
  TGI: > 100 µM
HOP-62 NSCLC
  TGI: > 100 µM

## NC(N)=N/N=C/c1c(-c2ccc([N+](=O)[O-])cc2)nc2sc(Cl)cn12
SK-MEL-28 melanoma
  TGI: 3.38 µM
NCI-H23 lung
  TGI: 2.69 µM
A549 NSCLC
  TGI: 3.09 µM
ACHN renal
  TGI: 2.42 µM
SK-OV-3 ovarian
  TGI: 3.31 µM
HOP-92 NSCLC
  TGI: 4.05 µM
MALME-3M melanoma
  TGI: 3.63 µM
CAKI-1 renal
  TGI: 3.76 µM
SNB-75 CNS
  TGI: 1.3 µM
SN12C renal
  TGI: 3.05 µM
EKVX NSCLC
  TGI: 1.53 µM
HT29 colon
  TGI: 3 µM
SF-268 CNS
  TGI: 3.31 µM
PC-3 prostate
  TGI: 2.04 µM
TK-10 renal
  TGI: 3.69 µM
KM12 colon
  TGI: 2.4 µM
OVCAR-5 ovarian
  TGI: 2.69 µM
UACC-257 melanoma
  TGI: 1.41 µM
UO-31 renal
  TGI: 2.68 µM
MDA-N
  TGI: 3.12 µM
T-47D breast
  TGI: > 100 µM
OVCAR-4 ovarian
  TGI: 0.954 µM
HCT-116 colon
  TGI: 0.575 µM
HS 578T breast
  TGI: > 100 µM
SK-MEL-5 melanoma
  TGI: 3.6 µM
786-0 renal
  TGI: 0.605 µM
RPMI-8226 leukemia
  TGI: 4 µM
SF-539 CNS
  TGI: 4.01 µM
COLO 205 colon
  TGI: 2.06 µM
RXF 393 renal
  TGI: 3.8 µM
SW-620 colon
  TGI: 1.46 µM
A498 renal
  TGI: 2.77 µM
MDA-MB-435
  TGI: 2.33 µM
NCI/ADR-RES ovarian
  TGI: 3.45 µM
SK-MEL-2 melanoma
  TGI: 3.2 µM
UACC-62 melanoma
  TGI: 3.01 µM
CCRF-CEM leukemia
  TGI: 1.14 µM
HOP-62 NSCLC
  TGI: 3.11 µM
